Results as given in PubChem BioAssay AID248 (DTP/NCI, 2004).
“And” between values parts separate entries of the source, which are not always exact repeats. Equal values may be shown once. Toxic doses and inconclusive results are not listed. Rule as the data show it: active = T/C of 150% or more; inactive = T/C below 125%.

Test system: L1210 leukemia ip in BDF1 mice, survival T/C
Assay: NCI In Vivo Anticancer Drug Screen. Data for tumor model L1210 Leukemia (intraperitoneal) in B6D2F1 (BDF1) mice
Details: endpoint: mean survival time, higher = longer survival
Method in brief: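 Each compound was tested against a transplantable tumor grown in mice. The endpoint was survival, with treated animals benchmarked against vehicle controls as a simple ratio.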

[1] = dose: 100.0 mg/kg/injection, schedule: Q01DX009 (ip), vehicle: saline sonified
[2] = dose: 100.0 mg/kg/injection, schedule: Q04DX003 (ip), vehicle: saline
[3] = dose: 200.0 mg/kg/injection, schedule: Q01DX009 (ip), vehicle: saline sonified
[4] = dose: 200.0 mg/kg/injection, schedule: Q04DX003 (ip), vehicle: saline
[5] = dose: 50.0 mg/kg/injection, schedule: Q01DX009 (ip), vehicle: saline
[6] = dose: 100.0 mg/kg/injection, schedule: Q01DX009 (ip), vehicle: saline
[7] = dose: 200.0 mg/kg/injection, schedule: Q01DX009 (ip), vehicle: saline
[8] = dose: 100.0 mg/kg/injection, schedule: Q01DX001 (ip), vehicle: saline
[9] = dose: 200.0 mg/kg/injection, schedule: Q01DX001 (ip), vehicle: saline
[10] = dose: 50.0 mg/kg/injection, schedule: Q01DX009 (ip), vehicle: saline with Tween-80
[11] = dose: 100.0 mg/kg/injection, schedule: Q01DX009 (ip), vehicle: saline with Tween-80
[12] = dose: 200.0 mg/kg/injection, schedule: Q01DX009 (ip), vehicle: saline with Tween-80
[13] = dose: 100.0 mg/kg/injection, schedule: Q01DX001 (ip), vehicle: carboxymethylcellulose (CMC)
[14] = dose: 100.0 mg/kg/injection, schedule: Q01DX009 (ip), vehicle: Klucel (hydroxypropylcellulose) (HPC)
[15] = dose: 100.0 mg/kg/injection, schedule: Q04DX002 (ip), vehicle: Klucel (hydroxypropylcellulose) (HPC)
[16] = dose: 200.0 mg/kg/injection, schedule: Q01DX001 (ip), vehicle: carboxymethylcellulose (CMC)
[17] = dose: 200.0 mg/kg/injection, schedule: Q01DX009 (ip), vehicle: Klucel (hydroxypropylcellulose) (HPC)
[18] = dose: 400.0 mg/kg/injection, schedule: Q01DX001 (ip), vehicle: carboxymethylcellulose (CMC)
[19] = dose: 400.0 mg/kg/injection, schedule: Q04DX002 (ip), vehicle: Klucel (hydroxypropylcellulose) (HPC)
[20] = dose: 400.0 mg/kg/injection, schedule: Q01DX001 (ip), vehicle: saline
[21] = dose: 100.0 mg/kg/injection, schedule: Q04DX003 (ip), vehicle: Klucel (hydroxypropylcellulose) (HPC)
[22] = dose: 200.0 mg/kg/injection, schedule: Q04DX003 (ip), vehicle: Klucel (hydroxypropylcellulose) (HPC)
[23] = dose: 400.0 mg/kg/injection, schedule: Q04DX003 (ip), vehicle: Klucel (hydroxypropylcellulose) (HPC)
[24] = dose: 50.0 mg/kg/injection, schedule: Q01DX009 (ip), vehicle: Klucel (hydroxypropylcellulose) (HPC)
[25] = dose: 100.0 mg/kg/injection, schedule: Q04DX002 (ip), vehicle: saline with Tween-80
[26] = dose: 200.0 mg/kg/injection, schedule: Q04DX002 (ip), vehicle: saline with Tween-80
[27] = dose: 100.0 mg/kg/injection, schedule: Q04DX003 (ip), vehicle: saline with Tween-80
[28] = dose: 200.0 mg/kg/injection, schedule: Q04DX003 (ip), vehicle: saline with Tween-80
[29] = dose: 400.0 mg/kg/injection, schedule: Q04DX003 (ip), vehicle: saline with Tween-80

Measured: T/C

O=c1[nH]c(=O)[nH]c(=S)[nH]1
inactive: dose: 100.0 mg/kg/injection, schedule: Q01DX Z (ip), vehicle: methylcellulose (MC) 98 % of control | dose: 200.0 mg/kg/injection, schedule: Q01DX Z (ip), vehicle: methylcellulose (MC) 87 % of control

COc1cc(N/C(N)=N\C(N)=NC(C)C)cc(OC)c1OC
inactive: dose: 50.0 mg/kg/injection, schedule: Q01DX009 (ip), vehicle: saline sonified 98 % of control | [1] 101 % of control | [2] 104 % of control | [3] 102 % of control | [4] 110 % of control

CCCCCCCCCC/C=N\N=C(N)N
inactive: dose: 15.0 mg/kg/injection, schedule: Q01DX Z (ip), vehicle: other 107 % of control | dose: 15.0 mg/kg/injection, schedule: Q01DX Z (oral), vehicle: carboxymethylcellulose (CMC) 96 % of control | dose: 30.0 mg/kg/injection, schedule: Q01DX Z (ip), vehicle: other 97 % of control | dose: 30.0 mg/kg/injection, schedule: Q01DX Z (oral), vehicle: carboxymethylcellulose (CMC) 103 % of control | dose: 60.0 mg/kg/injection, schedule: Q01DX Z (oral), vehicle: carboxymethylcellulose (CMC) 96 % of control | dose: 120.0 mg/kg/injection, schedule: Q01DX Z (oral), vehicle: carboxymethylcellulose (CMC) 103 % of control

C[N+](C)(C)c1ccc(/C=C2\C=Cc3ccccc32)cc1
inactive: dose: 15.0 mg/kg/injection, schedule: Q01DX001 (ip), vehicle: carboxymethylcellulose (CMC) 108 % of control | dose: 30.0 mg/kg/injection, schedule: Q01DX001 (ip), vehicle: carboxymethylcellulose (CMC) 102 % of control

C[C@]12CCC(=O)C=C1CC[C@@H]1[C@@H]2[C@@H](O)C[C@@]2(C)[C@H]1CC[C@]2(C)O
inactive: [5] 91 % of control | [6] 97 % of control | [7] 102 % of control

O=C(Cc1ccccc1)C(Cl)c1ccccc1 (centres undefined)
inactive: [8] 94 % of control | [9] 105 % of control

ClCCCCOCBr
inactive: [10] 97 % of control | [11] 104 % of control | [12] 95 % of control

COc1ccc2c(c1)N(C(=O)C(Cl)(Cl)Cl)Cc1ccccc1C2=O
inactive: [6] 87 % of control | [7] 93 % of control | dose: 400.0 mg/kg/injection, schedule: Q01DX009 (ip), vehicle: saline 96 % of control

NC1=NC(=O)C(c2ccccc2)(c2ccccc2)S1
inactive: [13] 91 % of control | [14] 97 % of control | [15] 94 % of control | [16] 98 % of control | [17] 97 % of control | dose: 200.0 mg/kg/injection, schedule: Q04DX002 (ip), vehicle: Klucel (hydroxypropylcellulose) (HPC) 90 % of control | [18] 91 % of control | dose: 400.0 mg/kg/injection, schedule: Q01DX009 (ip), vehicle: Klucel (hydroxypropylcellulose) (HPC) 97 % of control | [19] 97 % of control

CC(C)(C)CC(C)(C)N=C=S
inactive: dose: 25.0 mg/kg/injection, schedule: Q01DX009 (ip), vehicle: saline with Tween-80 100 % of control | [10] 94 % of control | [11] 96 % of control and 97 % of control

CCOC(=O)C1CCC1C(=O)OCC (centres undefined)
inactive: [5] 95 % of control | [6] 95 % of control | [2] 96 % of control | [7] 94 % of control | [4] 102 % of control | dose: 400.0 mg/kg/injection, schedule: Q04DX003 (ip), vehicle: saline 102 % of control

O=S(=O)(O)C(O)c1ccccc1O (centres undefined)
inactive: [8] 100 % of control | [9] 103 % of control | [20] 102 % of control

CC1(c2ccc3ccccc3c2)OCC2(CCC2)CO1
inactive: [15] 97 % of control | [19] 107 % of control

Clc1nn2cnnc2c2ccccc12
inactive: dose: 20.0 mg/kg/injection, schedule: Q04DX003 (ip), vehicle: saline 110 % of control

O=C1c2ccccc2C(=O)C2C3C=CC(CC3)C12 (centres undefined)
inactive: dose: 50.0 mg/kg/injection, schedule: Q01DX001 (ip), vehicle: carboxymethylcellulose (CMC) 100 % of control | [13] 97 % of control | [16] 97 % of control | [18] 97 % of control

CCOC(=O)c1c(Cl)c(Cl)c(C(=O)OCC)c(Cl)c1Cl
inactive: [1] 101 % of control | [21] 101 % of control | [3] 97 % of control | [22] 95 % of control | dose: 400.0 mg/kg/injection, schedule: Q01DX009 (ip), vehicle: saline sonified 95 % of control | [23] 92 % of control

Cc1ccc(S(=O)(=O)NCc2cccc([N+](=O)[O-])c2)cc1
inactive: dose: 100.0 mg/kg/injection, schedule: Q01DX001 (ip), vehicle: Klucel (hydroxypropylcellulose) (HPC) 102 % of control | dose: 200.0 mg/kg/injection, schedule: Q01DX001 (ip), vehicle: Klucel (hydroxypropylcellulose) (HPC) 96 % of control | dose: 400.0 mg/kg/injection, schedule: Q01DX001 (ip), vehicle: Klucel (hydroxypropylcellulose) (HPC) 96 % of control

CNC(Cc1ccccc1)c1ccco1 (centres undefined)
inactive: [24] 104 % of control | [14] 104 % of control | [25] 107 % of control | [17] 102 % of control | [26] 110 % of control

O=C(Nc1nccs1)Nc1cccc(Cl)c1Cl
inactive: dose: 25.0 mg/kg/injection, schedule: Q01DX009 (ip), vehicle: Klucel (hydroxypropylcellulose) (HPC) 106 % of control | [24] 101 % of control

CCOC(=O)N/N=C(/C)c1ccc(C)cc1
inactive: [10] 95 % of control and 121 % of control | dose: 100.0 mg/kg/injection, schedule: Q01DX001 (ip), vehicle: saline with Tween-80 103 % of control | [11] 105 % of control and 89 % of control | [25] 95 % of control and 104 % of control | [27] 97 % of control | dose: 200.0 mg/kg/injection, schedule: Q01DX001 (ip), vehicle: saline with Tween-80 101 % of control | [12] 101 % of control and 110 % of control | [26] 101 % of control and 110 % of control | [28] 97 % of control | dose: 400.0 mg/kg/injection, schedule: Q01DX001 (ip), vehicle: saline with Tween-80 102 % of control | [29] 110 % of control

Cc1cc([N+](=O)[O-])cc(Br)c1N
inactive: [28] 93 % of control | [29] 91 % of control

C1=C(c2ccc3ccccc3c2)Nc2ccccc2S1
inactive: dose: 100.0 mg/kg/injection, schedule: Q04DX002 (ip), vehicle: gum acacia 96 % of control | dose: 200.0 mg/kg/injection, schedule: Q04DX002 (ip), vehicle: gum acacia 96 % of control | dose: 400.0 mg/kg/injection, schedule: Q04DX002 (ip), vehicle: gum acacia 88 % of control

CS(=O)(=O)OCCCN(CCCOS(C)(=O)=O)c1ccc(C=Nc2ccc(-c3csc(COc4ccc(Br)cc4)n3)cc2)cc1
inactive: [11] 95 % of control | [12] 95 % of control

CC1CP(=O)(Cc2ccccc2)C(C)(c2ccccc2)C1=O (centres undefined)
inactive: [21] 93 % of control | [22] 100 % of control | [23] 100 % of control

COc1c(N)cc2c(c1C)OCOC2
inactive: [8] 97 % of control | [9] 100 % of control | [20] 105 % of control

O=C1c2ccccc2C(=O)N1OCCCBr
inactive: dose: 50.0 mg/kg/injection, schedule: Q01DX001 (ip), vehicle: saline 96 % of control | [8] 102 % of control | [9] 102 % of control | [20] 102 % of control

[O-][n+]1onc(-c2ccccn2)c1-c1ccccn1
inactive: [25] 95 % of control | [26] 100 % of control | dose: 400.0 mg/kg/injection, schedule: Q04DX002 (ip), vehicle: saline with Tween-80 103 % of control

O=C1OC(c2ccccc2)C=C1Nc1ccccc1 (centres undefined)
inactive: [27] 95 % of control | [28] 95 % of control | [29] 91 % of control
